Consider 30 molecules from patent US7501430B2 (ArQule, Inc., priority 2006, dated 2009).

The target of the assay is T1, mutant B-RAF (Homo sapiens, UniProt P15056, V600E).
T1 construct: purchased Upstate (Charlottesville, Va.)
Briefly: RAF biochemical assay (MEK-1 phosphorylation, anti-phospho MEK1/2 detection). Conditions: for IC50: read-out: Mutant B-RAF IC50; for inhibition at 10 µM: read-out: Mutant B-RAF % inhibition. An outline of the steps:
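Detection is by ELISA: after a 30 min room-temperature reaction, plate-captured GST-MEK-1 is probed with anti-phospho MEK1/2, then an AP-tagged secondary antibody with fluorescent Attophos read-out.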

T1 sequence (P15056 whole entry V600E): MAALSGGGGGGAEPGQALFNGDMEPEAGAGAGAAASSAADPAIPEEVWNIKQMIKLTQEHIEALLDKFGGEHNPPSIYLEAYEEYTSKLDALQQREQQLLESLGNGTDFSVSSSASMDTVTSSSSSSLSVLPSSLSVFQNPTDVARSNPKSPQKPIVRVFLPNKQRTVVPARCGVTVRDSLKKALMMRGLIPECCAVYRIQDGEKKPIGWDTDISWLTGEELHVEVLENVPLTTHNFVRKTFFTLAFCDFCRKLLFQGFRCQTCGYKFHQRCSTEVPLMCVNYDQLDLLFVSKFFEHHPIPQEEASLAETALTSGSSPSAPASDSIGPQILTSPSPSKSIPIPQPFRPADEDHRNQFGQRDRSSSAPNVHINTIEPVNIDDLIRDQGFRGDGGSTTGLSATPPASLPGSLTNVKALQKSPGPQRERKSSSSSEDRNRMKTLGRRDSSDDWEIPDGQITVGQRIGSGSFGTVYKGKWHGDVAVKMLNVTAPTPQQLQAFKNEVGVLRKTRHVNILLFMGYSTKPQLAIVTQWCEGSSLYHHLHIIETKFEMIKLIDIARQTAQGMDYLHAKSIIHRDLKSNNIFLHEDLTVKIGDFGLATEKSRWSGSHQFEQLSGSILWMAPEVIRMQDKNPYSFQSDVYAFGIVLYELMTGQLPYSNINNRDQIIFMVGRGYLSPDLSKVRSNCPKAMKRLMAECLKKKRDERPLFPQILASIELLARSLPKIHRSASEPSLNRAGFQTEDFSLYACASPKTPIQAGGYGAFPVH

One may read the IC50 as the concentration needed to halve the response being measured. `CS(=O)(=O)N1CCC[C@@H](Nc2nccc(-c3c(-c4cccc(O)c4)nc4sccn34)n2)C1` [Example 152, 3-[5-(2-{[(3R)-1-(methylsulfonyl)piperidin-3-yl]amino}pyrimidin-4-yl)imidazo[2,1-b][1,3]thiazol-6-yl]phenol]: the IC50 is 0.116 µM.

Consider `O=S(=O)(c1ccc(F)cc1)N1CCC(Nc2nccc(-c3c(-c4ccc(F)cc4)nc4sccn34)n2)CC1` [Example 153, 4-[6-(4-fiuorophenyl)imidazo[2,1-b][1,3]thiazol-5-yl]-N-{1-[(4-fluorophenyl)sulfonyl]piperidin-4-yl}pyrimidin-2-amine], for which the half-maximal inhibitory concentration (IC50) was determined as 0.078 µM.

Usually inhibition stands for how much of the control response was suppressed. In the case of `CCN1CCC(Nc2nccc(-c3c(-c4ccc(F)cc4)nc4sccn34)n2)CC1` [Example 154, N-(1-ethylpiperidin-4-yl)-4-[6-(4-fluorophenyl)imidazo[2,1-b][1,3]thiazol-5-yl]pyrimidin-2-amine], the inhibition at 10 µM was found to be 36%.

As for `Fc1ccc(-c2nc3sccn3c2-c2ccnc(NC3CCNCC3)n2)cc1` [Example 155, 4-[6-(4-fluorophenyl)imidazo[2,1-b][1,3]thiazol-5-yl]-N-piperidin-4-ylpyrimidin-2-amine], the 50% inhibitory concentration (IC50) turned out to be 2.36 µM.

`CCNC(=O)N1CCC(Nc2nccc(-c3c(-c4ccc(F)cc4)nc4occn34)n2)CC1` [Example 156, N-ethyl-4-({4-[6-(4-fluorophenyl)imidazo[2,1-b][1,3]oxazol-5-yl]pyrimidin-2-yl}amino)piperidine-1-carboxamide]: the IC50 came to 0.428 µM.

In the case of `O=S(=O)(c1ccc(F)cc1)N1CCC(Nc2nccc(-c3c(-c4ccc(F)cc4)nc4occn34)n2)CC1` [Example 157, 4-[6-(4-fluorophenyl)imidazo[2,1-b][1,3]oxazol-5-yl]-N-{1-[(4-fluorophenyl)sulfonyl]piperidin-4-yl}pyrimidin-2-amine], the IC50 worked out at 0.675 µM.

With `COc1ccc(C(=O)N2CCC(Nc3nccc(-c4c(-c5ccc(F)cc5)nc5occn45)n3)CC2)cc1` [Example 158, 4-[6-(4-fluorophenyl)imidazo[2,1-b][1,3]oxazol-5-yl]-N-[1-(4-methoxybenzoyl)piperidin-4-yl]pyrimidin-2-amine], the half-inhibitory concentration (IC50) came to 0.465 µM.

Consider `O=C(c1ccccc1)N1CCC(Nc2nccc(-c3c(-c4ccc(F)cc4)nc4occn34)n2)CC1` [Example 159, N-(1-benzoylpiperidin-4-yl)-4-[6-(4-fluorophenyl)imidazo[2,1-b][1,3]oxazol-5-yl]pyrimidin-2-amine], for which the half-inhibitory concentration (IC50) came to 1.01 µM.

For the molecule `O=C(COc1ccc(Cl)cc1)N1CCC(Nc2nccc(-c3c(-c4ccc(F)cc4)nc4occn34)n2)CC1` [Example 160, N-{1-[(4-chlorophenoxy)acetyl]piperidin-4-yl}-4-[6-(4-fluorophenyl)imidazo[2,1-b][1,3]oxazol-5-yl]pyrimidin-2-amine], the IC50 came out at 3.85 µM.

Turning to `O=C(c1cccc2cccnc12)N1CCC(Nc2nccc(-c3c(-c4ccc(F)cc4)nc4occn34)n2)CC1` [Example 161, 4-[6-(4-fluorophenyl)Imidazo[2,1-b][1,3]oxazol-5-yl]-N-[1-(quinolin-8-ylcarbonyl)piperidin-4-yl]pyrimidin-2-amine], the IC50 was 1.57 µM.

As for `O=C(C1CCNCC1)N1CCC(Nc2nccc(-c3c(-c4ccc(F)cc4)nc4occn34)n2)CC1` [Example 162, 4-[6-(4-fluorophenyl)imidazo[2,1-b][1,3]oxazol-5-yl]-N-[1-(piperidin-4-ylcarbonyl)piper-idin-4-yl]pyrimidin-2-amine], the IC50 amounted to 1.32 µM.

In the case of `COCC(=O)N1CCC(Nc2nccc(-c3c(-c4ccc(F)cc4)nc4occn34)n2)CC1` [Example 163, 4-[6-(4-fluorophenyl)imidazo[2,1-b][1,3]oxazol-5-yl]-N-[1-(methoxyacetyl)piperidin-4-yl]pyrimidin-2-amine], the inhibition at 10 µM turned out to be 53%.

Consider `O=C(C1CCCCC1)N1CCC(Nc2nccc(-c3c(-c4ccc(F)cc4)nc4occn34)n2)CC1` [Example 164, N-[1-(cyclohexylcarbonyl)piperidin-4-yl]-4-[6-(4-fluorophenyl)imidazo[2,1-b][1,3]oxazol-5-yl]pyrimidin-2-amine], for which the inhibition at 10 µM was 38%.

With `O=C(c1ccncc1)N1CCC(Nc2nccc(-c3c(-c4ccc(F)cc4)nc4occn34)n2)CC1` [Example 165, 4-[6-(4-fluorophenyl)imidazo[2,1-b][1,3]oxazol-5-yl]-N-(1-isonicotinoylpiperidin-4-yl)pyrimidin-2-amine], the inhibition at 10 µM was 33%.

With `O=C(c1ccco1)N1CCC(Nc2nccc(-c3c(-c4ccc(F)cc4)nc4occn34)n2)CC1` [Example 166, 4-[6-(4-fluorophenyl)imidazo[2,1-b][1,3]oxazol-5-yl]-N-[1-(2-furoyl)piperidin-4-yl]pyrimidin-2-amine], the inhibition at 10 µM was determined as 76%.

As to `O=C(NC1CCCCC1)N1CCC(Nc2nccc(-c3c(-c4ccc(F)cc4)nc4occn34)n2)CC1` [Example 167, N-cyclohexyl-4-({4-[6-(4-fluorophenyl)imidazo[2,1-b][1,3]oxazol-5-yl]pyrimidin-2-yl}amino)piperidine-1-carboxamide], the half-maximal inhibitory concentration (IC50) was 4.71 µM.

As for `CCCCNC(=O)N1CCC(Nc2nccc(-c3c(-c4ccc(F)cc4)nc4occn34)n2)CC1` [Example 168, N-butyl-4-({4-[6-(4-fluorophenyl)imidazo[2,1-b][1,3]oxazol-5-yl]pyrimidin-2-yl}amino)piperidine-1-carboxamide], the IC50 was 1.11 µM.

For `O=C(NCCc1ccccc1)N1CCC(Nc2nccc(-c3c(-c4ccc(F)cc4)nc4occn34)n2)CC1` [Example 169, 4-({4-[6-(4-fluorophenyl)imidazo[2,1-b][1,3]oxazol-5-yl]pyrimidin-2-yl}amino)-N-(2-phenylethyl)piperidine-1-carboxamide], the 50% inhibitory concentration (IC50) was found to be 0.266 µM.

For the molecule `O=C(NCc1ccccc1)N1CCC(Nc2nccc(-c3c(-c4ccc(F)cc4)nc4occn34)n2)CC1` [Example 170, N-benzyl-4-({4-[6-(4-fluorophenyl)imidazo[2,1-b][1,3]oxazol-5-yl]pyrimidin-2-yl}amino)piperidine-1-carboxamide], the IC50 worked out at 0.189 µM.

In the case of `O=C(Nc1ccccc1)N1CCC(Nc2nccc(-c3c(-c4ccc(F)cc4)nc4occn34)n2)CC1` [Example 171, 4-({4-[6-(4-fluorophenyl)imidazo[2,1-b][1,3]oxazol-5-yl]pyrimidin-2-yl}amino)-N-phenylpiperidine-1-carboxamide], the IC50 came to 4.73 µM.

On to `Cc1ccc(NC(=O)N2CCC(Nc3nccc(-c4c(-c5ccc(F)cc5)nc5occn45)n3)CC2)cc1` [Example 172, 4-({4-[6-(4-fluorophenyl)imidazo[2,1-b][1,3]oxazol-5-yl]pyrimidin-2-yl}amino)-N-(4-methylphenyl)piperidine-1-carboxamide], for which the IC50 worked out at 1.98 µM.

`COc1ccc(NC(=O)N2CCC(Nc3nccc(-c4c(-c5ccc(F)cc5)nc5occn45)n3)CC2)cc1` [Example 173, 4-({4-[6-(4-fluorophenyl)imidazo[2,1-b][1,3]oxazol-5-yl]pyrimidin-2-yl}amino)-N-(4-methoxyphenyl)piperidine-1-carboxamide]: the half-maximal inhibitory concentration (IC50) stood at 2.56 µM.

As for `O=C(Nc1ccc(F)cc1)N1CCC(Nc2nccc(-c3c(-c4ccc(F)cc4)nc4occn34)n2)CC1` [Example 174, N-(4-fluorophenyl)-4-({4-[6-(4-fluorophenyl)imidazo[2,1-b][1,3]oxazol-5-yl]pyrimidin-2-yl}amino)piperidine-1-carboxamide], the 50% inhibitory concentration (IC50) came to 4.73 µM.

For the molecule `CN(C)c1ccc(NC(=O)N2CCC(Nc3nccc(-c4c(-c5ccc(F)cc5)nc5occn45)n3)CC2)cc1` [Example 175, N-[4-(dimethylamino)phenyl]-4-({4-[6-(4-fluorophenyl)imidazo[2,1-b][1,3]oxazol-5-yl]pyrimidin-2-yl}amino)piperidine-1-carboxamide], the IC50 was determined as 0.066 µM.

Take `O=C(NCc1ccco1)N1CCC(Nc2nccc(-c3c(-c4ccc(F)cc4)nc4occn34)n2)CC1` [Example 176, 4-({4-[6-(4-fluorophenyl)imidazo[2,1-b][1,3]oxazol-5-yl]pyrimidin-2-yl}amino)-N-(2-furylmethyl)piperidine-1-carboxamide]: the 50% inhibitory concentration (IC50) turned out to be 0.082 µM.

Turning to `O=C(NC1CCCCO1)N1CCC(Nc2nccc(-c3c(-c4ccc(F)cc4)nc4occn34)n2)CC1` (stereo not drawn) [Example 177, 4-({4-[6-(4-fluorophenyl)imidazo[2,1-b][1,3]oxazol-5-yl]pyrimidin-2-yl}amino)-N-(tetrahydro-2H-pyran-2-yl)piperidine-1-carboxamide], the 50% inhibitory concentration (IC50) turned out to be 0.354 µM.

As to `Cc1noc(C)c1NC(=O)N1CCC(Nc2nccc(-c3c(-c4ccc(F)cc4)nc4occn34)n2)CC1` [Example 178, N-(3,5-dimethylisoxazol-4-yl)-4-({4-[6-(4-fluorophenyl)imidazo[2,1-b][1,3]oxazol-5-yl]pyrimidin-2-yl}amino)piperidine-1-carboxamide], the inhibition at 10 µM was found to be 19%.

For the molecule `O=C(Cc1ccc(F)cc1)N1CCC(Nc2nccc(-c3c(-c4ccc(F)cc4)nc4occn34)n2)CC1` [Example 179, N-{1-[(4-fluorophenyl)acetyl]piperidin-4-yl}-4-[6-(4-fluorophenyl)imidazo[2,1-b][1,3]oxazol-5-yl]pyrimidin-2-amine], the inhibition at 10 µM is 29%.

`CC(C)CC(=O)N1CCC(Nc2nccc(-c3c(-c4ccc(F)cc4)nc4occn34)n2)CC1` [Example 180, 4-[6-(4-fluorophenyl)imidazo[2,1-b][1,3]oxazol-5-yl]-N-[1-(3-methylbutanoyl)piperidin-4-yl]pyrimidin-2-amine]: the IC50 came out at 2.04 µM.

Turning to `O=C(c1ccc(F)cc1)N1CCC(Nc2nccc(-c3c(-c4ccc(F)cc4)nc4occn34)n2)CC1` [Example 181, N-[1-(4-fluorobenzoyl)piperidin-4-yl]-4-[6-(4-fluorophenyl)imidazo[2,1-b][1,3]oxazol-5-yl]pyrimidin-2-amine], the IC50 turned out to be 2.7 µM.
